Reference: ChEMBL document CHEMBL4602709 (ACS Med Chem Lett, 2020)

Assays:
[1] = Inhibition of VEGFR (unknown origin) assessed as residual activity incubated for 5 mins in presence of [gamma-33ATP] by scintillation counting based radiometry assay; design: species or system Homo sapiens
[2] = Cytotoxicity against human THLE3 assessed as reduction in cell viability incubated for 72 hrs by Cell Titer Glo 2.0 reagent based assay; conditions: THLE3 cells
[3] = target: T1, Ephrin type-B receptor 3 (Homo sapiens, UniProt P54753); assay: Inhibition of EPHB3 (unknown origin) assessed as residual activity incubated for 5 mins in presence of [gamma-33ATP] by scintillation counting based radiometry assay
T1 sequence (P54753 whole entry): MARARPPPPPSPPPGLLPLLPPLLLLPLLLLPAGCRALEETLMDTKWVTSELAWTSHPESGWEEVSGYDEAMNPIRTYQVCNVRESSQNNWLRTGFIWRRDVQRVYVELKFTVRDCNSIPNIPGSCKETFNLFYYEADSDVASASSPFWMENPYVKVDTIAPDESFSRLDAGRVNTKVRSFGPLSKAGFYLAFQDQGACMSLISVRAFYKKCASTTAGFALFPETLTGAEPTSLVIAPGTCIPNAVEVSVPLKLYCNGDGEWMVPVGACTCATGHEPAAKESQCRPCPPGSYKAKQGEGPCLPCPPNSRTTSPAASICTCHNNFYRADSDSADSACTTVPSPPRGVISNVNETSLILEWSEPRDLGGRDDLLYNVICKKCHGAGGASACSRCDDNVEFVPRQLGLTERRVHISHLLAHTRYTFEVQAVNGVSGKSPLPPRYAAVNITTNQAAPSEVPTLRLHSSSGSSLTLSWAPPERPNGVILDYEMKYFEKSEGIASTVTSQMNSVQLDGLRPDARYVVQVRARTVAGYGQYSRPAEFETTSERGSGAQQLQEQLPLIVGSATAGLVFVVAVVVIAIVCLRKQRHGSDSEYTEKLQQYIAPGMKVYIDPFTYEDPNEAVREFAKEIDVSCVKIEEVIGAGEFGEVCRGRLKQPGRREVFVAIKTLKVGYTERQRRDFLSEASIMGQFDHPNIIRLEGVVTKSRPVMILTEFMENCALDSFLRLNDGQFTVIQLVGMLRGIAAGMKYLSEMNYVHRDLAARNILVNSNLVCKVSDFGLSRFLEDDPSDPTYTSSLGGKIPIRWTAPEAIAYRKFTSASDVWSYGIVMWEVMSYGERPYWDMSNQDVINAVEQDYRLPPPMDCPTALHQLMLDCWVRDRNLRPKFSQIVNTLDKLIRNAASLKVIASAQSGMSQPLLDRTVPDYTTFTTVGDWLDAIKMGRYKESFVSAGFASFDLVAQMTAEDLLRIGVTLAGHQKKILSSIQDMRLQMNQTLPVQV

[4] = target: T2, Ephrin type-B receptor 2 (Homo sapiens, UniProt P29323); assay: Inhibition of EPHB2 (unknown origin) assessed as residual activity incubated for 5 mins in presence of [gamma-33ATP] by scintillation counting based radiometry assay
T2 sequence (P29323 whole entry): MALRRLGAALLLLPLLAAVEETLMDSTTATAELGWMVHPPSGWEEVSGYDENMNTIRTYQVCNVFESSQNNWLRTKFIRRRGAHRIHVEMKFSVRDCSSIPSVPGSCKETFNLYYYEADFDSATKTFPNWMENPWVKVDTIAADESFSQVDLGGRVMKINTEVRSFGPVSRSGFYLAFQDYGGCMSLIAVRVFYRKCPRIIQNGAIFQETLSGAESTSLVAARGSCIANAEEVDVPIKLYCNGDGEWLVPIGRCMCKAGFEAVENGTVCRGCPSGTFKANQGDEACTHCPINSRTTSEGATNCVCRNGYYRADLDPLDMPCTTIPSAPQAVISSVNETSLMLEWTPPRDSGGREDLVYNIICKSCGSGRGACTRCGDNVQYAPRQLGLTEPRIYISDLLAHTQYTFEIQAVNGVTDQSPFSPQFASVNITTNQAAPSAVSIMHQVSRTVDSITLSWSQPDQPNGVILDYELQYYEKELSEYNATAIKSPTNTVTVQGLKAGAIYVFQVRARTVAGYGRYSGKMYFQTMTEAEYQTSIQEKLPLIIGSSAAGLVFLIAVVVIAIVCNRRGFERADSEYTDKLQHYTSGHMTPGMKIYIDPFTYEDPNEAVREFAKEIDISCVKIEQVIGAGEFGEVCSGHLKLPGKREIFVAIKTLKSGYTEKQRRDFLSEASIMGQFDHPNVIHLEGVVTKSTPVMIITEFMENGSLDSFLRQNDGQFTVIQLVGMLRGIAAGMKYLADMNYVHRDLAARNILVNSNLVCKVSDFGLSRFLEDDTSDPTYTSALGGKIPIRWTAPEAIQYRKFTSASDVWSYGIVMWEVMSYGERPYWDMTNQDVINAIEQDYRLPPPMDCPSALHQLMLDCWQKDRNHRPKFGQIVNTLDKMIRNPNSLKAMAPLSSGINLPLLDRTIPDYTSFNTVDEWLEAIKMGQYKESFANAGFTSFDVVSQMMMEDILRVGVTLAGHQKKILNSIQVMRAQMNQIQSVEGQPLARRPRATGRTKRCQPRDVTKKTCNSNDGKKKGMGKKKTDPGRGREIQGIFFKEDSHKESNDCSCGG

[5] = target: Platelet-derived growth factor receptor alpha (Homo sapiens, UniProt P16234); assay: Inhibition of PDGFRalpha (unknown origin) assessed as residual activity incubated for 5 mins in presence of [gamma-33ATP] by scintillation counting based radiometry assay
Chain of Platelet-derived growth factor receptor alpha (P16234 whole entry): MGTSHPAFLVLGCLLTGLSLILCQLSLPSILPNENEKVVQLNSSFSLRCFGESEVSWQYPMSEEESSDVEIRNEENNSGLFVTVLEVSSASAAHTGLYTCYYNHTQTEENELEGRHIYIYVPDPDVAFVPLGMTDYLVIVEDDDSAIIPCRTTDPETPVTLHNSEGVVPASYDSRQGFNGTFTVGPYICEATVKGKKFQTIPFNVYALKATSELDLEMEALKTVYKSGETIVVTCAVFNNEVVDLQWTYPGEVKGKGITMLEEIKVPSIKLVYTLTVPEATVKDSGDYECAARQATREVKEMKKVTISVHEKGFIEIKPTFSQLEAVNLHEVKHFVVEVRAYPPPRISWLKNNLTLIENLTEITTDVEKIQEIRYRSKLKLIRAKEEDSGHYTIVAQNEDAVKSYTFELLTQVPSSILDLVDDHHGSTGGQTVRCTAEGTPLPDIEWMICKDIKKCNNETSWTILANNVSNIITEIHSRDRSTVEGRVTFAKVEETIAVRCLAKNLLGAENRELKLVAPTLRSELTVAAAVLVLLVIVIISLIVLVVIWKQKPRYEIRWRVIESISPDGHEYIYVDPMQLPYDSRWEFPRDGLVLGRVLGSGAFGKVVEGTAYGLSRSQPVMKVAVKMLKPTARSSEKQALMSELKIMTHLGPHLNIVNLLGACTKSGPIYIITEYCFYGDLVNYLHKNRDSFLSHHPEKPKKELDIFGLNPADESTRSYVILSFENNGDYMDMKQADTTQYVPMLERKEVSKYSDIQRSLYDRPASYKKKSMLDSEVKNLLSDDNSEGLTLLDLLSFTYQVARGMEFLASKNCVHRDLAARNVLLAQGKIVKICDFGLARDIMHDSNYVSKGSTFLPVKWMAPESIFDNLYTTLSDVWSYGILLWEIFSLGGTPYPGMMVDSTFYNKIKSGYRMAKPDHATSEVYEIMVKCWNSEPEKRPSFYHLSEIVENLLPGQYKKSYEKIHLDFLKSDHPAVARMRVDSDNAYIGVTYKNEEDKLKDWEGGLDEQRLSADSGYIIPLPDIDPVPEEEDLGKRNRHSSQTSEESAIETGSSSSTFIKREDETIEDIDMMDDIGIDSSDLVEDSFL

**Q.** Which results are given for `Cc1ccc(C(=O)Nc2ccc(CN3Cc4cn[nH]c4C3)c(Cl)c2)cc1C#Cc1cnc2cccnn12`?
**A.** IC50 [1]: 44.8 nM; CC50 at 72 h [2]: > 50000 nM; IC50 [3]: 19.5 nM; IC50 [4]: 70.8 nM; IC50 [5]: 2 nM
